Measured values reported in the NIST ThermoML archive (doi:10.1016/j.jct.2014.02.024).
Numbers after ± are expanded uncertainties.

Assays:
[1] = 101.3 kPa, Liquid; for viscosity: Capillary tube (Ostwald / Ubbelohde) method; for mass density: Pycnometric method
[2] = mn = molality of the nth substance listed, in mol/kg; conditions: 101.3 kPa, Liquid, m2 = 0; for viscosity: Capillary tube (Ostwald / Ubbelohde) method; for mass density: Pycnometric method

| viscosity ([1]; 275.15 K) [mPa·s] | mass density ([1]; 275.15 K) [kg/m3] | viscosity ([1]; 277.15 K) [mPa·s] | mass density ([1]; 277.15 K) [kg/m3] | viscosity ([1]; 279.15 K) [mPa·s] | mass density ([1]; 279.15 K) [kg/m3] | viscosity ([2]; 275.15 K) [mPa·s] | mass density ([2]; 275.15 K) [kg/m3] | viscosity ([2]; 277.15 K) [mPa·s] | mass density ([2]; 277.15 K) [kg/m3] | viscosity ([2]; 279.15 K) [mPa·s] | mass density ([2]; 279.15 K) [kg/m3] | Structure (SMILES) |
| --- | --- | --- | --- | --- | --- | --- | --- | --- | --- | --- | --- | --- |
| 1.674 ± 0.036 | 999.94 ± 0.92 | 1.567 ± 0.034 | 999.97 ± 0.92 | 1.472 ± 0.032 | 999.94 ± 0.92 | – | – | – | – | – | – | O [water] |
| – | – | – | – | – | – | 1.674 ± 0.036 | 999.94 ± 0.92 | 1.567 ± 0.034 | 999.97 ± 0.92 | 1.472 ± 0.032 | 999.94 ± 0.92 | O [water] + NC(=O)c1cccnc1 |
| – | – | – | – | – | – | 1.674 ± 0.036 | 999.94 ± 0.92 | 1.567 ± 0.034 | 999.97 ± 0.92 | 1.472 ± 0.032 | 999.94 ± 0.92 | O [water] + O=C(O)c1cccnc1 |
